Columns and labels:
the trypanosome = details: cited from earlier work
[1] = tested on: binding of mAb T54E10 to the n-butanol species; test: ELISA inhibition-binding study, mAb T54E10 on n-butanol fraction GPI species; set-up: species or system mouse
Procedure: The GPI species of the n-butanol fraction were coated on microtiter wells at a coat concentration which corresponds to 10^6 tachyzoites per well. […] Ethanolamine (10 mM) itself was able to inhibit the binding of mAb T54E10 by 50%. All other compounds tested were not able to inhibit the binding of the monoclonal antibody. However, the binding of human anti-Toxoplasma antibodies was not affected by any of the compounds tested.
FIG. 6: Inhibition ELISA: Inhibition ELISA using glycolipids contained in the butanol phase as antigen and mAb T54E10

Question: With CCCOCCCCCCCCCC(=O)O [10-(propoxy) decanoic acid] as the compound, how does the “Toxicity to the trypanosome” value (the trypanosome) read?
Answer: selective toxicity

Question: Which “Inhibition of the binding of mAb T54E10” value ([1]; 10 mM) does the source give for NCCO [Ethanolamine] here?
Answer: 50%

Question: Which “Inhibition of binding of mAb T54E10 to n-butanol species” value ([1]; coat corresponding to 10^6 tachyzoites per well, FIG. 6) does the source give for NCCOP(=O)(O)O [ethanolamine-phosphate] here?
Answer: inhibited

From US20020058288A1, “TOXOPLASMA GONDII GLYCOCONJUGATES” (priority 1995, published 2002)
